pIC50, pKi: −log10 of the molar value. Like-named read-outs stand apart in the source and are kept apart here.

These results are taken from US20250092035A1, “ISOCITRATE DEHYDROGENASE 1 INHIBITORS AND METHODS OF USE THEREOF” (THE WISTAR INSTITUTE OF ANATOMY AND BIOLOGY, priority 2022, published 2025).

In data set [1] the target is T1, IDH1 (Homo sapiens, UniProt O75874). Description: IC50 in two trials and mean (Example 1, assay not described). The data set is classed as biochemical.
In data set [2] the target is T1, IDH1. Description: IC50 dose-response curve fits (Example 1, assay not described). The format is biochemical. Particulars: for pIC50: curve fit; for Bottom / Slope / Top: curve-fit parameter.
A short description of data set [3]: Microsomal stability (mouse liver microsome assay). On the technique in general: Microsomes from liver hold many membrane-bound enzymes, among them those of drug oxidation.
Data set [4] can be described thus: Mouse pharmacokinetics study. Particulars: CD-1, mouse, plasma, ip, 10 mg/kg.
Another data set deals with MiaPaCa2 xenograft. As for the experimental part: In vivo studies. […] Mice were maintained under pathogen-free conditions in the animal facility. No additional food or nutrient-contained bedding provided to the animals during these studies. […] Mice with subcutaneous PDX were purchased from The Jackson Laboratory (#TM01212). […] Mice were imaged weekly to monitor tumor progression and tumor volume was assessed for each mouse and plotted longitudinally. […] All experiments with KPC mice were performed under a UK Home Office license and approved by the University of Glasgow Animal Welfare and Ethical Review Board. […] Tamoxifen dissolved in corn oil at 20 mg/ml, and animals received tamoxifen (75 mg/kg, IP administration, once daily) for six consecutive days. For flank xenograft experiments, 1×10^6 cells were suspended in 200 μL of a PBS:matrigel solution (1:1) and injected subcutaneously into the right flank of mice. For orthotopic experiments, 4×10^4 Luciferase-expressing KPC K8484 cells were suspended in 50 μL of a PBS:matrigel solution (1:1) and injected into the pancreas of C57BL/6 mice at 12 weeks of age. Equal number of male and female mice were used. Mice were anesthetized using isoflurane gas. After ensuring appropriate depth of anesthesia, a 0.5 cm left subcostal incision was made to gain access into the peritoneal cavity. The tail of the pancreas was externalized and the mixture was carefully injected into the pancreas. […]

Data set [5] has as its target T1, IDH1. Description: Two-step binding kinetics (Example 1, assay not described).
For data set [6] the following is noted: reported (ref. 52); cited from earlier work.
Where [7] appears, read: Trial 1, read-out: IC50, Trial 1.
The mark [8] stands for this setting: Trial 2, read-out: IC50, Trial 2.
Setting [9] is: mean of the trials, read-out: Mean IC50.
The mark [10] stands for this setting: 1st step, read-out: KiAPP (affinity for 1st step).
Where [11] appears, read: 2nd step, read-out: KiAPP* (affinity for 2nd step).

T1 sequence (O75874 whole entry): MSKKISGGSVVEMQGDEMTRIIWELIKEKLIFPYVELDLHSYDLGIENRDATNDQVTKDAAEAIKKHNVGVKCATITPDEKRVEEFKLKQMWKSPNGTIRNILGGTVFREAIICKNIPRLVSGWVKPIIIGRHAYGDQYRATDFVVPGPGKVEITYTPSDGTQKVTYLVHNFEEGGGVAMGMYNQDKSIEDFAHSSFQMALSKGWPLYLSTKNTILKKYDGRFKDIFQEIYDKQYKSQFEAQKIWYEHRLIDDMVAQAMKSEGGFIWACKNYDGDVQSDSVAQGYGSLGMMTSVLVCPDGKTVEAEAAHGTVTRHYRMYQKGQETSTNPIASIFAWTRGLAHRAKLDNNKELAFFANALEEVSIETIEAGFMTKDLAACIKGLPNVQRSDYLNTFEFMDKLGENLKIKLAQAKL

Broadly, the pIC50 is the negative decadic logarithm of the IC50, by convention in mol/L. Turning to `CC1(C)CN(C(=O)c2ccc[nH]2)Cc2c(C(=O)Nc3cccc(C(N)=O)c3)nn(Cc3ccc(F)cc3)c21` [FSM-2-95], the figures for the pIC50 at IDH1 [1] (setting [7]), at IDH1 [1] (setting [8]) and at IDH1 [1] (setting [9]) were 6.51, 6.53 and 6.52, respectively.

For the compound `CC1(C)CN(C(=O)c2cccs2)Cc2c(C(=O)Nc3cccc(C(N)=O)c3)nn(Cc3ccc(F)cc3)c21` [FSM-2-96], the pIC50 at IDH1 [1] (setting [7]) is 6.58; at IDH1 [1] (setting [8]), 6.60; on IDH1 [1] (setting [9]), 6.59.

On to `CC1(C)CN(C(=O)c2ccc[nH]2)Cc2c(C(=O)Nc3cccc(C(=O)O)c3)nn(Cc3ccc(F)cc3)c21` [FSM-2-97], for which the pIC50 at IDH1 [1] (setting [7]) was under 5.00; at IDH1 [1] (setting [8]), 5.11; on IDH1 [1] (setting [9]) it was 5.11.

With `CC1(C)CN(C(=O)c2cccs2)Cc2c(C(=O)Nc3cccc(C(=O)O)c3)nn(Cc3ccc(F)cc3)c21` [FSM-2-98], the pIC50 at IDH1 [1] (setting [7]) was 5.20; on IDH1 [1] (setting [8]), 5.30; on IDH1 [1] (setting [9]), 5.25.

Consider `CC1(C)CN(C(=O)c2ccc[nH]2)Cc2c(C(=O)Nc3ncco3)nn(Cc3ccc(F)cc3)c21` [FSM-2-113], for which the pIC50 on IDH1 [1] (setting [7]) was 5.90; at IDH1 [1] (setting [8]), 5.98; on IDH1 [1] (setting [9]) it was 5.94.

On to `CC1(C)CN(C(=O)c2cccs2)Cc2c(C(=O)Nc3ncco3)nn(Cc3ccc(F)cc3)c21` [FSM-2-114], for which the pIC50 on IDH1 [1] (setting [7]) was 5.86; at IDH1 [1] (setting [8]), 5.91; at IDH1 [1] (setting [9]), 5.89.

As for `CC1(C)CN(C(=O)c2ccc[nH]2)Cc2c(C(=O)Nc3nccs3)nn(Cc3ccc(F)cc3)c21` [FSM-2-115], the pIC50 at IDH1 [1] (setting [7]), at IDH1 [1] (setting [8]) and at IDH1 [1] (setting [9]) was under 5.00 each time.

As to `CC1(C)CN(C(=O)c2cccs2)Cc2c(C(=O)Nc3nccs3)nn(Cc3ccc(F)cc3)c21` [FSM-2-116], the pIC50 was under 5.00 at IDH1 [1] (setting [7]), 5.09 at IDH1 [1] (setting [8]) and 5.09 on IDH1 [1] (setting [9]).

At IDH1 [2], `COc1ccc(NC(=O)c2nn(Cc3ccc(C(F)(F)F)cc3)c3c2CN(C(=O)c2ccc[nH]2)CC3(C)C)cc1` [FSM-2-275] showed a pIC50 of 8.48, a Bottom of 3.6, a Slope of 1.3 and a Top of 99.1.

As to `COc1ccc(NC(=O)c2nn(Cc3ccc(C(F)(F)F)cc3)c3c2CN(C(=O)c2cccs2)CC3(C)C)cc1` [FSM-2-276], on IDH1 [2], the pIC50 was 8.55, the Bottom was 15.8, the Slope was found to be 1.4 and the Top was found to be 98.9.

At IDH1 [2], `COc1cccc(NC(=O)c2nn(Cc3ccc(C(F)(F)F)cc3)c3c2CN(C(=O)c2ccc[nH]2)CC3(C)C)c1` [FSM-2-277] gave a pIC50 of 8.54, a Bottom of 11.8, a Slope of 1.0 and a Top of 99.3.

On IDH1 [2], `COc1cccc(NC(=O)c2nn(Cc3ccc(C(F)(F)F)cc3)c3c2CN(C(=O)c2cccs2)CC3(C)C)c1` [FSM-2-278] showed a negative-log IC50 (pIC50) of 8.54, a Bottom of 4.6, a Slope of 1.0 and a Top of 98.0.

As a reminder, the half-life is the time needed for the level to fall by half in the phase considered. Low readings indicate rapid decline, high ones slow decline. At IDH1 [2], `CC(O)c1cccc(NC(=O)c2nn(Cc3ccc(C(F)(F)F)cc3)c3c2CN(C(=O)c2cn[nH]c2)CC3(C)C)c1` (stereo not shown) [FSM-2-302] gave a negative logarithm of the IC50 (pIC50) of 7.44, a Bottom of 4.0, a Slope of 1.0 and a Top of 97.9. For the same compound, in data set [3] (liver microsomes), the half-life at 0.5 μM was 56.6 min.

In general, Cmax refers to the highest concentration seen after dosing. As for `CC1(C)CN(C(=O)c2cn[nH]c2)Cc2c(C(=O)Nc3ccc(F)cc3)nn(Cc3ccc(C(F)(F)F)cc3)c21` [FSM-3-002, N-(4-Fluorophenyl)-7,7-dimethyl-5-(1H-pyrazole-4-carbonyl)-1-(4-(trifluoromethyl)benzyl)-4,5,6,7-tetrahydro-1H-pyrazolo[4,3-c]pyridine-3-carboxamide], the half-life at 0.5 μM in data set [3] (liver microsomes) came out at 147 min. The compound further registered a Cmax in data set [4] of 2320 ng/mL. In addition, the xenograft growth entry in the data set on MiaPaCa2 xenograft (75 mg/kg IP once daily) is given as “marked reduction in MiaPaCa2 xenograft growth”. Besides, the tolerability entry in the data set with MiaPaCa2 xenograft (mouse, in vivo, ip, 75 mg/kg) is “well-tolerated”.

At IDH1 [2], `CC1(C)CN(C(=O)c2cn[nH]c2)Cc2c(C(=O)Nc3cccc(F)c3)nn(Cc3ccc(C(F)(F)F)cc3)c21` [FSM-3-02] had a pIC50 of 6.95, a Bottom of −0.9, a Slope of 1.0 and a Top of 95.0.

In the case of `Cc1ncsc1-c1ccc(CNC(=O)[C@@H]2C[C@@H](O)CN2C(=O)C(NC(=O)CCCCCCOc2cccc(NC(=O)c3nn(Cc4ccc(F)cc4)c4c3CN(C(=O)c3ccc[nH]3)CC4(C)C)c2)C(C)(C)C)cc1` (stereo partly shown) [FSM-3-17], the half-life at 0.5 μM in data set [3] (liver microsomes) is 19.5 min.

Regarding `CC1(C)CN(C(=O)c2cn[nH]c2)Cc2c(C(=O)Nc3cccc(NC(=O)CCCl)c3)nn(Cc3ccc(C(F)(F)F)cc3)c21` [FSM-05-141], the “k5 (on rate for 2nd step, min−1)” value on IDH1 [5] came out at 0.257 min⁻¹. Moreover, at IDH1 [5], the “k6 (off rate for 2nd step)” value was found to be 0.002 min⁻¹. Further, the pKi on IDH1 [5] (setting [10]) was 4.90; at IDH1 [5] (setting [11]) it was 7.09.

For the compound `C=CC(=O)Nc1cccc(NC(=O)c2nn(Cc3ccc(C(F)(F)F)cc3)c3c2CN(C(=O)c2cn[nH]c2)CC3(C)C)c1` [FSM-05-157], the “k5 (on rate for 2nd step, min−1)” value at IDH1 [5] was determined as 0.306 min⁻¹. Moreover, on IDH1 [5], the “k6 (off rate for 2nd step)” value was found to be 0.001 min⁻¹. In addition, the pKi is 4.63 at IDH1 [5] (setting [10]) and 7.19 on IDH1 [5] (setting [11]).

Consider `C[C@@H]1CN(C(=O)c2ccc[nH]2)Cc2c(C(=O)Nc3cccc([C@@H](C)O)c3)nn(Cc3ccc(F)cc3)c21` [FSM-206, reference compound], for which, on IDH1 [2], the Bottom is listed as −0.8, the Slope is on record as 1.0 and the Top is 98.0. In data set [6], the bioavailability entry is listed as “poor bioavailability”.

As for `CC1(C)CN(C(=O)c2ccc[nH]2)Cc2c(C(=O)Nc3cccc(C(=O)NC4CC4)c3)nn(Cc3ccc(F)cc3)c21` [IAP-1-23], the pIC50 is 5.99 on IDH1 [1] (setting [7]), 6.02 on IDH1 [1] (setting [8]) and 6.00 on IDH1 [1] (setting [9]).

Consider `CC1(C)CN(C(=O)c2ccc[nH]2)Cc2c(C(=O)Nc3cccc(C(=O)NC4CCCC4)c3)nn(Cc3ccc(F)cc3)c21` [IAP-1-34], for which the values for the pIC50 at IDH1 [1] (setting [7]), at IDH1 [1] (setting [8]) and on IDH1 [1] (setting [9]) were 7.06, 7.02 and 7.04, respectively.

Regarding `CC1(C)CN(C(=O)c2cccs2)Cc2c(C(=O)Nc3cccc(C(=O)NC4CCCC4)c3)nn(Cc3ccc(F)cc3)c21` [IAP-1-35], the figures for the pIC50 on IDH1 [1] (setting [7]), at IDH1 [1] (setting [8]) and at IDH1 [1] (setting [9]) were 7.16, 7.15 and 7.16, respectively.

Regarding `CC1(C)CN(C(=O)c2cccs2)Cc2c(C(=O)Nc3cccc(C(=O)NC4CCCCC4)c3)nn(Cc3ccc(F)cc3)c21` [IAP-1-37], the pIC50 on IDH1 [1] (setting [7]) is 7.72; at IDH1 [1] (setting [8]), 7.74; on IDH1 [1] (setting [9]), 7.72.

As to `CC(O)c1cccc(NC(=O)c2nn(Cc3ccc(F)cc3)c3c2CN(C(=O)c2cccn2C)CC3(C)C)c1` (stereo not shown) [IAP-1-39], the pIC50 at IDH1 [1] (setting [7]) was 7.35; at IDH1 [1] (setting [8]), 7.33; on IDH1 [1] (setting [9]) it was 7.34.

Consider `Cc1c[nH]c(C(=O)N2Cc3c(C(=O)Nc4cccc(C(C)O)c4)nn(Cc4ccc(F)cc4)c3C(C)(C)C2)c1` (stereo not shown) [IAP-1-40], for which the pIC50 is 6.28 at IDH1 [1] (setting [7]), 6.32 on IDH1 [1] (setting [8]) and 6.30 on IDH1 [1] (setting [9]).

In data set [3] (microsomes), `Cc1ncc2n1-c1ccc(Cl)cc1C(c1ccccc1F)=NC2` [Midazolam, reference compound] gave a half-life at 0.5 μM of 1.76 min.

Regarding `Cn1cccc1C(=O)N1Cc2c(C(=O)Nc3ccccc3)nn(Cc3ccc(F)cc3)c2C(C)(C)C1` [VV-1-19], the pIC50 on IDH1 [1] (setting [7]), on IDH1 [1] (setting [8]) and on IDH1 [1] (setting [9]) was 7.14 throughout.
